Among the data in patent US20240409585A1, “MACROCYCLIC IMMUNOMODULATORS” (priority 2021, published 2024) are IC50 values, retold here.

Bridge positions count the residues as written; N and C are the ends. Square brackets hold non-standard residues; d marks the D form. Peptide text beside a SMILES is read from it. * marks the point of attachment. Bip(4'-COOH) = N[C@@H](Cc1ccc(-c2ccc(C(=O)O)cc2)cc1)C(=O)O; Bip(4'-NHAc) = CC(=O)Nc1ccc(-c2ccc(C[C@H](N)C(=O)O)cc2)cc1; Phe(3-CF3) = N[C@@H](Cc1cccc(C(F)(F)F)c1)C(=O)O; Ala(morpholin-4-yl) = N[C@@H](CN1CCOCC1)C(=O)O; Phe(4-CONH2) = NC(=O)c1ccc(C[C@H](N)C(=O)O)cc1; Phe(4-COOH) = N[C@@H](Cc1ccc(C(=O)O)cc1)C(=O)O; Bip = N[C@@H](Cc1ccc(-c2ccccc2)cc1)C(=O)O; Phe(4-NH2) = Nc1ccc(C[C@H](N)C(=O)O)cc1; Phe(3-Me) = Cc1cccc(C[C@H](N)C(=O)O)c1; Phe(4-Me) = Cc1ccc(C[C@H](N)C(=O)O)cc1; Abu(3S-NH2) = C[C@H](N)[C@H](N)C(=O)O; Val(3-OH) = CC(C)(O)[C@H](N)C(=O)O; hArg = N=C(N)NCCCC[C@H](N)C(=O)O; hPhe = N[C@@H](CCc1ccccc1)C(=O)O; Cha = N[C@@H](CC1CCCCC1)C(=O)O; Carboxymethyl = O=C(O)C*; NMeA = CN[C@@H](C)C(=O)O; Orn = NCCC[C@H](N)C(=O)O; Dab = NCC[C@H](N)C(=O)O; X42 = CS(=O)(=O)O*

T1 sequence (Q15116 25-288): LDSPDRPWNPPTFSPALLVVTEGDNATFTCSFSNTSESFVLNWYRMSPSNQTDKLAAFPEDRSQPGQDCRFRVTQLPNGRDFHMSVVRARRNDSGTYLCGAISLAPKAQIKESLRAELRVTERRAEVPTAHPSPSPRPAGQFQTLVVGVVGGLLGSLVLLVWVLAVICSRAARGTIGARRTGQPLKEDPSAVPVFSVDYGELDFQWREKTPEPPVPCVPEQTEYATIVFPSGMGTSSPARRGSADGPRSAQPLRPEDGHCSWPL

The first test has as its target T1, Alexa fluor-647 labeled human PD-L1-Ig binding to Jurkat cell line over-expressing human PD-1 (Homo sapiens, UniProt Q15116).
T1 construct: expressed in transfected cells; host or cells: Jurkat
Nature of the test: Jurkat-PD-1 Cell Binding High-Content Screening Assay (CBA): Method 3 (Alexa fluor-647 labeled PD-L1-Ig). The conditions noted are these: Jurkat-PD-1 cells, Alexa fluor-647 labeled PD-L1-Ig 177 nM; head μM; read-out: CBA Method 3 μM. An outline of the steps: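 Jurkat cells over-expressing human PD-1 in RPMI/10% FCS were preincubated 2 h at 37 °C with compound, then exposed 1 h to Alexa fluor-647 labeled human PD-L1-Ig (177 nM final). Cells fixed in 4% paraformaldehyde with Hoechst 33342 and binding quantified by high-content imaging.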
Turning to `CC(=O)Nc1ccc(-c2ccc(C[C@@H]3NC(=O)[C@H](Cc4cccc(C(F)(F)F)c4)NC(=O)[C@H](CC(=O)OS(C)(=O)=O)NC(=O)[C@H](Cc4ccc(C(=O)O)cc4)NC(=O)[C@H]([C@H](C)N)NC(=O)CSC[C@@H](C(=O)N[C@@H](CCN)C(N)=O)NC(=O)[C@H](CC(N)=O)NC(=O)[C@H](C(C)C)NC(=O)[C@H](CC4CCCCC4)NC(=O)[C@H](CCN)NC(=O)[C@@H](CC(C)C)NC(=O)[C@H](C)N(C)C(=O)[C@H](Cc4ccc(C(N)=O)cc4)NC(=O)[C@H](Cc4ccc(-c5ccccc5)cc4)NC3=O)cc2)cc1` [Example 5112] ({CH2CO}-[Abu(3S-NH2)][Phe(4-COOH)]D(X42)[Phe(3-CF3)][Bip(4'-NHAc)][Bip][Phe(4-CONH2)][NMeA][dL][Dab][Cha]VNC[Dab]-NH2; thioether N-14), the IC50 stood at 0.1 µM.

`Cc1cccc(C[C@@H]2NC(=O)[C@H](CC(=O)O)NC(=O)[C@H](Cc3ccc(-c4ccc(C(=O)O)cc4)cc3)NC(=O)[C@H](CN3CCOCC3)NC(=O)CSC[C@@H](C(=O)N[C@@H](CCN)C(N)=O)NC(=O)[C@H](CCC(=O)O)NC(=O)[C@H](C(C)C)NC(=O)[C@H](CC3CCCCC3)NC(=O)[C@H](CCN)NC(=O)[C@@H](CC(C)C)NC(=O)[C@H](C)N(C)C(=O)[C@H](Cc3ccc(C(=O)O)cc3)NC(=O)[C@H](Cc3ccc(-c4ccccc4)cc3)NC(=O)[C@H](Cc3ccc(-c4ccc(C(=O)O)cc4)cc3)NC2=O)c1` [Example 5093] ({CH2CO}-[Ala(morpholin-4-yl)][Bip(4'-COOH)]D[Phe(3-Me)][Bip(4'-COOH)][Bip][Phe(4-COOH)][NMeA][dL][Dab][Cha]VEC[Dab]-NH2; thioether N-14): the IC50 is 0.16 µM.

For `CC(=O)Nc1ccc(-c2ccc(C[C@@H]3NC(=O)[C@H](Cc4cccc(C(F)(F)F)c4)NC(=O)[C@H](CC(=O)O)NC(=O)[C@H](Cc4ccc(C(=O)O)cc4)NC(=O)[C@H](Cc4ccc(OCC(=O)O)cc4)NC(=O)CSC[C@@H](C(=O)N[C@@H](CCN)C(N)=O)NC(=O)[C@H](CCC(=O)O)NC(=O)[C@H](C(C)C)NC(=O)[C@H](CC4CCCCC4)NC(=O)[C@H](CCN)NC(=O)[C@@H](CC(C)C)NC(=O)[C@H](C)N(C)C(=O)[C@H](Cc4ccc(OCC(=O)O)cc4)NC(=O)[C@H](Cc4ccc(-c5ccccc5)cc4)NC3=O)cc2)cc1` [Example 5156] ({CH2CO}-Y(Carboxymethyl)[Phe(4-COOH)]D[Phe(3-CF3)][Bip(4'-NHAc)][Bip]Y(Carboxymethyl)[NMeA][dL][Dab][Cha]VEC[Dab]-NH2; thioether N-14), the IC50 came to 0.07 µM.

For `Cc1cccc(C[C@@H]2NC(=O)[C@H](CC(=O)O)NC(=O)[C@H](Cc3ccc(OCC(=O)O)cc3)NC(=O)[C@H](CC3CCCCC3)NC(=O)CSC[C@@H](C(=O)N[C@@H](CCN)C(N)=O)NC(=O)[C@H](CCCN)NC(=O)[C@H](C(C)C)NC(=O)[C@H](Cc3ccc(N)cc3)NC(=O)[C@H](CCN)NC(=O)[C@@H](CC(C)C)NC(=O)[C@H](C)N(C)C(=O)[C@H](CCC(N)=O)NC(=O)[C@H](Cc3ccc(-c4ccccc4)cc3)NC(=O)[C@H](Cc3ccc(C(=O)O)cc3)NC2=O)c1` [Example 5189] ({CH2CO}-[Cha]Y(Carboxymethyl)D[Phe(3-Me)][Phe(4-COOH)][Bip]Q[NMeA][dL][Dab][Phe(4-NH2)]V[Orn]C[Dab]-NH2; thioether N-14), the IC50 is 0.33 µM.

As to `CC(C)C[C@@H]1NC(=O)[C@H](Cc2c[nH]c3ccccc23)NC(=O)[C@H](CC(=O)O)NC(=O)[C@H](Cc2ccc(C(=O)O)cc2)NC(=O)[C@H](Cc2ccc(OCC(=O)O)cc2)NC(=O)CSC[C@@H](C(=O)N[C@@H](CCN)C(N)=O)NC(=O)[C@H](C(C)C)NC(=O)[C@H]([C@@H](C)O)NC(=O)[C@H](CC2CCCCC2)NC(=O)[C@H](CCN)NC(=O)[C@@H](CC(C)C)NC(=O)[C@H](C)N(C)C(=O)[C@H](C(C)C)NC(=O)[C@H](Cc2ccc(-c3ccccc3)cc2)NC1=O` [Example 5141] ({CH2CO}-Y(Carboxymethyl)[Phe(4-COOH)]DWL[Bip]V[NMeA][dL][Dab][Cha]TVC[Dab]-NH2; thioether N-14), the IC50 came out at 0.02 µM.

For the compound `Cc1cccc(C[C@@H]2NC(=O)[C@H](CC(=O)O)NC(=O)[C@H](Cc3ccc(OCC(=O)O)cc3)NC(=O)[C@H](CC3CCCCC3)NC(=O)CSC[C@@H](C(=O)N[C@@H](CCN)C(N)=O)NC(=O)[C@H](CCC(N)=O)NC(=O)[C@H](C(C)C)NC(=O)[C@H](CC3CCCCC3)NC(=O)[C@H](CCN)NC(=O)[C@@H](CC(C)C)NC(=O)[C@H](C)N(C)C(=O)[C@H](CCC(N)=O)NC(=O)[C@H](Cc3ccc(-c4ccccc4)cc3)NC(=O)[C@H](CCc3ccccc3)NC2=O)c1` [Example 5222] ({CH2CO}-[Cha]Y(Carboxymethyl)D[Phe(3-Me)][hPhe][Bip]Q[NMeA][dL][Dab][Cha]VQC[Dab]-NH2; thioether N-14), the IC50 was determined as 0.02 µM.

In the case of `CC(=O)Nc1ccc(-c2ccc(C[C@@H]3NC(=O)[C@H](Cc4cccc(C(F)(F)F)c4)NC(=O)[C@H](CC(=O)O)NC(=O)[C@H](Cc4ccc(C(=O)O)cc4)NC(=O)[C@H](CC(C)C)NC(=O)CSC[C@@H](C(=O)N[C@@H](CCN)C(N)=O)NC(=O)[C@H](CCC(=O)O)NC(=O)[C@H](C(C)C)NC(=O)[C@H](CC4CCCCC4)NC(=O)[C@H](CCN)NC(=O)[C@@H](CC(C)C)NC(=O)[C@H](C)N(C)C(=O)[C@H](CCCN)NC(=O)[C@H](Cc4ccc(-c5ccccc5)cc4)NC3=O)cc2)cc1` [Example 5094] ({CH2CO}-L[Phe(4-COOH)]D[Phe(3-CF3)][Bip(4'-NHAc)][Bip][Orn][NMeA][dL][Dab][Cha]VEC[Dab]-NH2; thioether N-14), the IC50 was 0.03 µM.

In the case of `Cc1cccc(C[C@@H]2NC(=O)[C@H](CC(=O)O)NC(=O)[C@H](Cc3ccc(OCC(=O)O)cc3)NC(=O)[C@H](C)NC(=O)CSC[C@@H](C(=O)N[C@@H](CCN)C(N)=O)NC(=O)[C@H](CCC(=O)O)NC(=O)[C@H](C(C)C)NC(=O)[C@H](CC3CCCCC3)NC(=O)[C@H](CCN)NC(=O)[C@@H](CC(C)C)NC(=O)[C@H](C)N(C)C(=O)[C@H](Cc3ccc(OCC(=O)O)cc3)NC(=O)[C@H](Cc3ccc(-c4ccccc4)cc3)NC(=O)[C@H](Cc3ccc(OCC(=O)O)cc3)NC2=O)c1` [Example 5139] ({CH2CO}-AY(Carboxymethyl)D[Phe(3-Me)]Y(Carboxymethyl)[Bip]Y(Carboxymethyl)[NMeA][dL][Dab][Cha]VEC[Dab]-NH2; thioether N-14), the IC50 was 0.03 µM.

The test is the same for the next values; noted with them: Jurkat-PD-1 cells, Alexa fluor-647 labeled PD-L1-Ig 177 nM; nM; read-out: CBA Method 3.
Consider `CC(C)C[C@H]1NC(=O)[C@H](C)N(C)C(=O)[C@H](Cc2ccc(C(=O)O)cc2)NC(=O)[C@H](Cc2ccc(-c3ccccc3)cc2)NC(=O)[C@H](CCc2ccccc2)NC(=O)[C@H](Cc2cccc(C(F)(F)F)c2)NC(=O)[C@H](CC(=O)O)NC(=O)[C@H](Cc2ccc(C(=O)O)cc2)NC(=O)[C@H](CCCCNC(=N)N)NC(=O)CSC[C@@H](C(=O)N[C@@H](CCN)C(N)=O)NC(=O)[C@H](CO)NC(=O)[C@H](C(C)(C)O)NC(=O)[C@H](CC2CCCCC2)NC(=O)[C@H](CCN)NC1=O` [Example 5252] ({CH2CO}-[hArg][Phe(4-COOH)]D[Phe(3-CF3)][hPhe][Bip][Phe(4-COOH)][NMeA][dL][Dab][Cha][Val(3-OH)]SC[Dab]-NH2; thioether N-14), for which the IC50 worked out at 0.0012 µM.

`CC(C)C[C@H]1NC(=O)[C@H](C)N(C)C(=O)[C@H](CCCN)NC(=O)[C@H](Cc2ccc(-c3ccccc3)cc2)NC(=O)[C@H](Cc2ccc(-c3ccc(C(=O)O)cc3)cc2)NC(=O)[C@H](Cc2cccc(C(F)(F)F)c2)NC(=O)[C@H](CC(=O)O)NC(=O)[C@H](Cc2ccc(-c3ccc(C(=O)O)cc3)cc2)NC(=O)[C@H](Cc2ccc(OCC(=O)O)cc2)NC(=O)CSC[C@@H](C(=O)N[C@@H](CCN)C(N)=O)NC(=O)[C@H](CCC(N)=O)NC(=O)[C@H](C(C)C)NC(=O)[C@H](CC2CCCCC2)NC(=O)[C@H](CCN)NC1=O` [Example 5120] ({CH2CO}-Y(Carboxymethyl)[Bip(4'-COOH)]D[Phe(3-CF3)][Bip(4'-COOH)][Bip][Orn][NMeA][dL][Dab][Cha]VQC[Dab]-NH2; thioether N-14): the IC50 came to 0.0056 µM.

With `Cc1ccc(C[C@@H]2NC(=O)CSC[C@@H](C(=O)N[C@@H](CCN)C(N)=O)NC(=O)[C@H](CCCN)NC(=O)[C@H](C(C)C)NC(=O)[C@H](CC3CCCCC3)NC(=O)[C@H](CCN)NC(=O)[C@@H](CC(C)C)NC(=O)[C@H](C)N(C)C(=O)[C@H](CCC(N)=O)NC(=O)[C@H](Cc3ccc(-c4ccccc4)cc3)NC(=O)[C@H](Cc3ccc(C(=O)O)cc3)NC(=O)[C@H](Cc3cccc(C)c3)NC(=O)[C@H](CC(=O)O)NC(=O)[C@H](Cc3ccc(OCC(=O)O)cc3)NC2=O)cc1` [Example 5289] ({CH2CO}-[Phe(4-Me)]Y(Carboxymethyl)D[Phe(3-Me)][Phe(4-COOH)][Bip]Q[NMeA][dL][Dab][Cha]V[Orn]C[Dab]-NH2; thioether N-14), the IC50 was found to be 0.0008 µM.

Take `CC(=O)Nc1ccc(-c2ccc(C[C@@H]3NC(=O)[C@H](Cc4cccc(C(F)(F)F)c4)NC(=O)[C@H](CC(=O)O)NC(=O)[C@H](Cc4ccc(C(N)=O)cc4)NC(=O)[C@H]([C@H](C)N)NC(=O)CSC[C@@H](C(=O)N[C@@H](CCN)C(N)=O)NC(=O)[C@H](CC(N)=O)NC(=O)[C@H](C(C)C)NC(=O)[C@H](CC4CCCCC4)NC(=O)[C@H](CCN)NC(=O)[C@@H](CC(C)C)NC(=O)[C@H](C)N(C)C(=O)[C@H](Cc4ccc(C(N)=O)cc4)NC(=O)[C@H](Cc4ccc(-c5ccccc5)cc4)NC3=O)cc2)cc1` [Example 5110] ({CH2CO}-[Abu(3S-NH2)][Phe(4-CONH2)]D[Phe(3-CF3)][Bip(4'-NHAc)][Bip][Phe(4-CONH2)][NMeA][dL][Dab][Cha]VNC[Dab]-NH2; thioether N-14): the IC50 was 0.0088 µM.
